Measured values: ChEMBL document CHEMBL2040733, “Doing the methylene shuffle--further insights into the inhibition of mitotic kinesin Eg5 with S-trityl L-cysteine” (Eur J Med Chem, 2012)
≈ marks a conversion by molar mass, not a printed value.

Legend:
[1] = Cytotoxicity against wild type human KB-3-1 cells; assay type: functional
BXPC-3 = experiment: Cytotoxicity against human BxPC3 cells after 72 hrs by Alamar blue assay; assay type: functional; conditions: BXPC-3, 72 h
KB-V1 = experiment: Multidrug resistant ratio of GI50 for human KBV1 cells expressing p-glycoprotein to GI50 for wild type human KB-3-1 cells; assay type: functional
[2] = molecular target: T1, Kinesin-like protein KIF11 (Homo sapiens, UniProt P52732)
T1 sequence (P52732 whole entry): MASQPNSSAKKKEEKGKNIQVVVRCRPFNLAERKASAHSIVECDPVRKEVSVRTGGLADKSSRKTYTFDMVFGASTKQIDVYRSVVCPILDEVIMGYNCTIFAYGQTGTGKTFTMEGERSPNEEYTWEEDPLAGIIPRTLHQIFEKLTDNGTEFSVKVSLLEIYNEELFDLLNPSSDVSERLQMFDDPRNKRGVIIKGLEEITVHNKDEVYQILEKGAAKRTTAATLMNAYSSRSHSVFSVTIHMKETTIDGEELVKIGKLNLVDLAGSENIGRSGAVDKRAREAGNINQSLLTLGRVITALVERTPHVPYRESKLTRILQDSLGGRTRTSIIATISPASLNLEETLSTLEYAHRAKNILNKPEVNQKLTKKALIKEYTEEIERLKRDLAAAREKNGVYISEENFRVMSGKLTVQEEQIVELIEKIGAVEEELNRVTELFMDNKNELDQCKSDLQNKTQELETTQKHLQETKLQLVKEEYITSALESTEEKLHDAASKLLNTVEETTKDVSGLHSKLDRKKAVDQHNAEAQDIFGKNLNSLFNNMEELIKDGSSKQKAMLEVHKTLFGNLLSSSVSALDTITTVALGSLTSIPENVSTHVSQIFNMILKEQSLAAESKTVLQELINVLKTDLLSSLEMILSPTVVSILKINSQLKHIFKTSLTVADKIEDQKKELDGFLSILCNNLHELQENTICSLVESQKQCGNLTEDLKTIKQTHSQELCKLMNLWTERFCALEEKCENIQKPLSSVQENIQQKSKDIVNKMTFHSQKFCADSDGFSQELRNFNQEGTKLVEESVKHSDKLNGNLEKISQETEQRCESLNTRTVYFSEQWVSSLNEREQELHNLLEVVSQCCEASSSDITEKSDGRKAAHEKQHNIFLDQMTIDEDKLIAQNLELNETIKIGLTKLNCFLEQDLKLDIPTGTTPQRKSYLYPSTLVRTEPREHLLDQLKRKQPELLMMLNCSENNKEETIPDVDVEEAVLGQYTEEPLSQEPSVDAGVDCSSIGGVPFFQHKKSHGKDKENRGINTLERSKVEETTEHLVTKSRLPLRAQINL
Description: Inhibition of basal ATPase activity of Eg5 by coupled pyruvate kinase/lactate dehydrogenase assay

NCI-H1299 = experiment: Cytotoxicity against human NCI-H1299 cells after 72 hrs by Alamar blue assay; assay type: functional; conditions: NCI-H1299, 72 h
K562 = experiment: Cytotoxicity against human K562 cells after 72 hrs by Alamar blue assay; assay type: functional; conditions: K562, 72 h
HCT-116 = experiment: Cytotoxicity against human HCT116 cells after 72 hrs by Alamar blue assay; assay type: functional; conditions: HCT-116, 72 h
[3] = Cytotoxicity against human KBV1 cells expressing p-glycoprotein; assay type: functional; conditions: KB-V1
[4] = Solubility of the compound in phosphate buffered saline at pH 7.4 after 2 hrs by turbidimetric analysis; assay type: physicochemical

IC50 [2] [nM] | Compound | GI50 (K562) [nM] | also measured
684 | NCCSC(Cc1ccccc1)(c1ccccc1)c1ccccc1 |  | solubility kinetic at 2 h [4]: > 100 µM
15800 | N[C@@H](CSC(CCc1ccccc1)(c1ccccc1)c1ccccc1)C(=O)O |  | 
> 150000 | N[C@@H](CSC(C(=O)c1ccccc1)(c1ccccc1)c1ccccc1)C(=O)O |  | 
238 | N[C@@H](CSC(Cc1cccc(Cl)c1)(c1ccccc1)c1ccccc1)C(=O)O |  | 
456 | N[C@@H](CSC(Cc1ccc(Cl)cc1)(c1ccccc1)c1ccccc1)C(=O)O |  | 
5280 | N[C@@H](CSC(Cc1ccc(Cl)c(Cl)c1)(c1ccccc1)c1ccccc1)C(=O)O |  | 
942 | NCCSC(c1ccccc1)(c1ccccc1)c1ccncc1 |  | 
> 50000 | NCCSC(C(=O)c1ccccc1)(c1ccccc1)c1ccccc1 |  | 
252 | N[C@@H](CSC(Cc1ccccc1)(c1ccc(Cl)cc1)c1ccc(Cl)cc1)C(=O)O |  | 
588 | NCCSC(Cc1ccccc1)(c1ccc(F)cc1)c1ccc(F)cc1 |  | 
404 | NCCSC(Cc1ccccc1)(c1ccc(Cl)cc1)c1ccc(Cl)cc1 |  | 
261 | Cc1ccc(C(Cc2ccccc2)(SCCN)c2ccc(C)cc2)cc1 |  | 
514 | N[C@@H](CSC(c1ccccc1)(c1ccccc1)c1ccncc1)C(=O)O |  | 
241 | NCCSC(c1ccccc1)(c1ccccc1)c1ccccc1 |  | 
217 | N[C@@H](CSC(Cc1ccccc1)(c1ccccc1)c1ccccc1F)C(=O)O (mixture of isomers) |  | 
191 | N[C@@H](CSC(Cc1ccccc1)(c1ccccc1)c1ccc(Cl)c(Cl)c1)C(=O)O (mixture of isomers) |  | 
568 | N[C@@H](CSC(Cc1ccccc1)(c1ccc(Cl)cc1)c1cccc(Cl)c1)C(=O)O (mixture of isomers) |  | 
790 | NCCSC(Cc1ccccc1)(c1ccccc1)c1ccccc1F (racemic) |  | 
519 | NCCSC(Cc1ccccc1)(c1ccccc1)c1cccc(Cl)c1 (racemic) |  | 
578 | NCCSC(Cc1ccccc1)(c1ccccc1)c1ccc(F)cc1 (racemic) |  | 
666 | NCCSC(Cc1ccccc1)(c1ccccc1)c1ccc(O)cc1 (racemic) |  | 
229 | NCCSC(Cc1ccccc1)(c1ccccc1)c1ccc(Cl)c(Cl)c1 (racemic) |  | 
437 | NCCSC(Cc1ccccc1)(c1ccc(Cl)cc1)c1cccc(Cl)c1 (racemic) |  | 

Compound | IC50 [2] [nM] | GI50 (K562) [nM] | also measured
N[C@@H](CSC(Cc1ccccc1)(c1ccccc1)c1ccccc1)C(=O)O | 138 | 3140 | GI50 [1]: 5330 nM; GI50 (BXPC-3): 14300 nM; RatioGI50 (KB-V1): >10; GI50 (NCI-H1299): 6870 nM; GI50 (HCT-116): 2370 nM; GI50 [3]: > 50000 nM; solubility kinetic at 2 h [4]: > 100 µM
Cc1ccc(C(Cc2ccccc2)(SC[C@H](N)C(=O)O)c2ccc(C)cc2)cc1 | 106 | 2790 | 
N[C@@H](CSC(Cc1ccccc1)(c1ccccc1)c1cccc(Cl)c1)C(=O)O (mixture of isomers) | 129 | 4540 | 
N[C@@H](CSC(Cc1ccccc1)(c1ccccc1)c1cccc(O)c1)C(=O)O (mixture of isomers) | 67.6 | 17700 | 
N[C@@H](CSC(Cc1ccccc1)(c1ccccc1)c1ccc(F)cc1)C(=O)O (mixture of isomers) | 151 | 6100 | 
N[C@@H](CSC(Cc1ccccc1)(c1ccccc1)c1ccc(Cl)cc1)C(=O)O (mixture of isomers) | 58.6 | 2470 | GI50 [1]: 4890 nM; GI50 (BXPC-3): 3790 nM; RatioGI50 (KB-V1): >10; GI50 (NCI-H1299): 3630 nM; GI50 (HCT-116): 2080 nM; GI50 [3]: > 50000 nM
Cc1ccc(C(Cc2ccccc2)(SC[C@H](N)C(=O)O)c2ccccc2)cc1 (mixture of isomers) | 168 | 1440 | GI50 [1]: 2440 nM; GI50 (BXPC-3): 4340 nM; RatioGI50 (KB-V1): >20; GI50 (NCI-H1299): 2430 nM; GI50 (HCT-116): 1490 nM; GI50 [3]: > 50000 nM; solubility kinetic at 2 h [4]: 11.5 µM
N[C@@H](CSC(Cc1ccccc1)(c1ccccc1)c1ccc(O)cc1)C(=O)O (mixture of isomers) | 159 | 18200 | 
N[C@@H](CSC(Cc1ccccc1)(c1ccc(F)cc1)c1ccc(F)cc1)C(=O)O (mixture of isomers) | 178 | 5120 | 
NCCSC(Cc1ccccc1)(c1ccccc1)c1cccc(O)c1 (racemic) | 256 | 2730 | 
NCCSC(Cc1ccccc1)(c1ccccc1)c1ccc(Cl)cc1 (racemic) | 141 | 3720 | GI50 [1]: 5550 nM; GI50 (BXPC-3): 4260 nM; RatioGI50 (KB-V1): 1; GI50 (NCI-H1299): 6790 nM; GI50 (HCT-116): 2050 nM; GI50 [3]: 5780 nM
Cc1ccc(C(Cc2ccccc2)(SCCN)c2ccccc2)cc1 (racemic) | 172 | 2390 | GI50 [1]: 1880 nM; GI50 (BXPC-3): 4070 nM; RatioGI50 (KB-V1): 1; GI50 (NCI-H1299): 2500 nM; GI50 (HCT-116): 1170 nM; GI50 [3]: 1720 nM; solubility kinetic at 2 h [4]: 6.5 µM (≈ 2.26 µg/mL)
